Test systems include HOP-18 NSCLC; KM20L2 colon; DMS 114 small cell lung; LXFL 529 NSCLC; DMS 273 small cell lung; RXF-631 renal; M19-MEL melanoma; MDA-N; T-47D breast.
Holding throughout (experiment): NCI tumour cell line growth inhibition, 48 h

Molecules are shown by their SMILES. Values joined by “and” are separate entries in the source; they are usually repeats but may differ in a detail not shown here. Equal values may be shown once.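 A five-concentration, 48-hour dose response in 96-well plates underlies each endpoint, interpolated linearly between surrounding concentrations. GI50 marks 50% less growth. TGI denotes the concentration required for complete inhibition of growth.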

`CC1(Cc2ccccc2)NC(=S)NC1=O` (configuration not stated): the TGI is 8.35 µM in the experiment on HOP-18 NSCLC; > 100 µM in the experiment with KM20L2 colon; > 100 µM in the experiment with DMS 114 small cell lung; > 100 µM with LXFL 529 NSCLC; > 100 µM in the experiment with DMS 273 small cell lung; > 100 µM in the experiment on RXF-631 renal. Further, the TGI in the experiment with M19-MEL melanoma is > 100 µM.
Regarding `CC/C(=N\NS(=O)(=O)c1ccccc1)c1ccccc1`, the TGI in the experiment with HOP-18 NSCLC, in the experiment on KM20L2 colon, with LXFL 529 NSCLC, with DMS 273 small cell lung, with RXF-631 renal and in the experiment on M19-MEL melanoma was > 100 µM each time.
As to `C[n+]1c2ccccc2cc2c(CNC(CCCN=C(N)N)C(=O)O)cccc21` (configuration not stated), the TGI with HOP-18 NSCLC was 15.5 µM; in the experiment with KM20L2 colon, 12.3 µM; in the experiment on DMS 114 small cell lung, 1.16 µM and 3.36 µM; in the experiment with LXFL 529 NSCLC it was 2.12 µM and 2.14 µM; in the experiment with DMS 273 small cell lung it was 8.77 µM and 1.53 µM; in the experiment on RXF-631 renal it was 12.6 µM. Moreover, the TGI in the experiment with M19-MEL melanoma is 2.26 µM and 17 µM. For the same compound, the GI50 in the experiment on KM20L2 colon is 346 nM; with DMS 114 small cell lung, 1620 nM; in the experiment with LXFL 529 NSCLC, 659 nM; in the experiment with DMS 273 small cell lung, 441 nM; with M19-MEL melanoma it was 4.23 µM.
Consider `CCN(CC)CC(=O)N1CCc2c([nH]c3ccccc23)C1c1cccnc1` (configuration not stated), for which the TGI with HOP-18 NSCLC, with KM20L2 colon, in the experiment with DMS 114 small cell lung, with LXFL 529 NSCLC, in the experiment with DMS 273 small cell lung and in the experiment on RXF-631 renal was > 100 µM in each case. Also, in the experiment with M19-MEL melanoma, the TGI is > 100 µM.
As for `CC1(C)CC[C@H](C2=CC(=O)c3c(O)ccc(O)c3C2=O)O1`, the TGI with MDA-N is 1600 nM and 3780 nM; with HOP-18 NSCLC, 3.39 µM and 3.15 µM and 0.703 µM; in the experiment with DMS 114 small cell lung it was 2.21 µM and 3.14 µM and 0.47 µM; with T-47D breast, 1350 nM and 2630 nM; with RXF-631 renal, 3.98 µM. For the same compound, the GI50 with HOP-18 NSCLC was 1830 nM and 1720 nM and 265 nM; with DMS 114 small cell lung, 1630 nM; in the experiment with DMS 273 small cell lung it was 7310 nM and 1320 nM and 752 nM.
`Cc1ccc(S(=O)(=O)N/N=C(\c2nc3ccc([N+](=O)[O-])cc3[nH]c2=O)C(O)c2ccccc2Cl)cc1` (configuration not stated): the TGI with HOP-18 NSCLC, in the experiment with KM20L2 colon, with DMS 114 small cell lung, with LXFL 529 NSCLC, in the experiment on DMS 273 small cell lung and with RXF-631 renal was > 100 µM each time. Further, the TGI with M19-MEL melanoma was > 100 µM.
In the case of `C=CCC1[C@@H](C(C)(C)C(C(C)=O)C(=O)C(=O)OC)OC(C(C)(C)C)N1C(=O)OC` (some centres not stated), the TGI in the experiment on HOP-18 NSCLC, in the experiment on KM20L2 colon, in the experiment on RXF-631 renal and in the experiment on M19-MEL melanoma was > 100 µM each time.
As for `CC(CC(=O)Nc1ccc(NC(=O)CC(C)N=NC(N)=S)cc1)N=NC(N)=S` (configuration not stated), the TGI in the experiment on HOP-18 NSCLC, in the experiment with KM20L2 colon, in the experiment on DMS 114 small cell lung, in the experiment on LXFL 529 NSCLC, in the experiment on DMS 273 small cell lung and with RXF-631 renal was > 100 µM in each case. Also, in the experiment on M19-MEL melanoma, the TGI was > 100 µM.
For `CC1=C(C(=O)Nc2ccccc2C)C(/C=C/c2ccccc2)C(C(=O)Nc2ccccc2C)=C(C)N1`, the TGI in the experiment on HOP-18 NSCLC, in the experiment on KM20L2 colon, in the experiment with LXFL 529 NSCLC, in the experiment with DMS 273 small cell lung, in the experiment with RXF-631 renal and in the experiment with M19-MEL melanoma was > 100 µM each time.
As for `O=C/C(=C(/Cl)c1ccc(O)cc1)c1ccccc1`, the TGI is > 31.6 µM in the experiment with HOP-18 NSCLC; > 59.8 µM with KM20L2 colon; 31.2 µM in the experiment on DMS 114 small cell lung; 59.9 µM with LXFL 529 NSCLC; 48 µM in the experiment with DMS 273 small cell lung; > 31.6 µM with RXF-631 renal. In the experiment on M19-MEL melanoma, the TGI is 42.1 µM.
Consider `CCCCCCCCCCCCCC(=O)OCC1OC(=O)CC1O` (configuration not stated), for which the TGI with HOP-18 NSCLC is 67.3 µM; in the experiment on KM20L2 colon, > 100 µM; with DMS 114 small cell lung, > 100 µM; in the experiment with LXFL 529 NSCLC, > 100 µM; in the experiment with DMS 273 small cell lung, > 100 µM; with RXF-631 renal, > 100 µM.

(Values after PubChem BioAssay (NCI).)
